Key:
[1] = molecular target: T1, glutathione S-transferase (GST)-fused full-length human Syk protein (Homo sapiens, UniProt P43405); test: Syk enzyme assay; format: biochemical; settings: Syk enzyme assay, Test Example 1; read-out: IC50 of Syk-inhibitory activity
T1 construct: (GST)-fused full-length human Syk protein; GST (glutathione S-transferase); purchased Carna Biosciences
How it was run: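 IC50 values come from a time-resolved FRET readout (615 and 665 nm) of substrate phosphorylation, measured after an EDTA stop and 1 h antibody binding. The kinase reaction ran 40 min at room temperature with 27 μM ATP and 0.4 μM biotin-peptide, following a 15 min compound preincubation with baculovirus-made GST-full-length human Syk.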

THP-1 cells = test: TNFα generation assay; format: cell-based, human; settings: Homo sapiens, THP-1, THP-1 cells; Table 22; read-out: IC50 in TNFα generation assay
How it was run: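 THP-1 cells differentiated to macrophage-like cells with 10 ng/ml IFN-γ for 2 days, preincubated with compound 30 min at room temperature, then cultured 7 h on plates coated with human IgG (10 μg/ml). Secreted TNFα measured by ELISA or AlphaLISA.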

Row | Compound | IC50 [1] | IC50 (THP-1 cells)
1 | NC(=O)c1cc(F)c(N[C@@H]2CCCC[C@@H]2N)nc1Nc1cc(-n2ccnn2)nc2[nH]ccc12 (relative stereo) [Example 004-068, 2-((6-(1H-1,2,3-triazol-1-yl)-1H-pyrrolo[2,3-b]pyridin-4-yl)amino)-6-(cis-2-aminocyclohexylamino)-5-fluoronicotinamide] | < 10 nM | 65 to 130 nM
2 | Cc1cc2cc(Nc3nc(N[C@@H]4CCCC[C@@H]4N)c(F)cc3C(N)=O)ccc2[nH]1 (relative stereo) [Example 004-071, 6-(cis-2-aminocyclohexylamino)-5-fluoro-2-((2-methyl-1H-indol-5-yl)amino)nicotinamide] | < 10 nM | 130 to 200 nM
3 | Cn1cc(-c2cncc(Nc3nc(N[C@@H]4CCCC[C@@H]4N)c(F)cc3C(N)=O)c2)cn1 (relative stereo) [Example 004-072, 6-(cis-2-aminocyclohexylamino)-5-fluoro-2-((5-(1-methyl-1H-pyrazol-4-yl)pyridin-3-yl)-amino)nicotinamide] | < 10 nM | 130 to 200 nM
4 | NC(=O)c1cc(F)c(N[C@@H]2CCCC[C@@H]2N)nc1Nc1cncc(-c2ccsc2)c1 (relative stereo) [Example 004-077, 6-(cis-2-aminocyclohexylamino)-5-fluoro-2-((5-(thiophene-3-yl)pyridin-3-yl)amino)-nicotinamide] | < 10 nM | 65 to 130 nM
5 | NC(=O)c1cc(F)c(N[C@@H]2CCCC[C@@H]2N)nc1Nc1cncc(-c2ccoc2)c1 (relative stereo) [Example 004-078, 6-(cis-2-aminocyclohexylamino)-5-fluoro-2-((5-(furan-3-yl)pyridin-3-yl)amino)-nicotinamide] | < 10 nM | 65 to 130 nM
6 | NC(=O)c1cc(F)c(N[C@@H]2CCCC[C@@H]2N)nc1Nc1cc(F)cc2[nH]ccc12 (relative stereo) [Example 004-082, 6-(cis-2-aminocyclohexylamino)-5-fluoro-2-((6-fluoro-1H-indol-4-yl)amino)nicotinamide] | < 10 nM | 130 to 200 nM
7 | NC(=O)c1cc(F)c(N[C@@H]2CCCC[C@@H]2N)nc1Nc1cc([N+](=O)[O-])c2[nH]ccc2c1 (relative stereo) [Example 004-089, 6-(cis-2-aminocyclohexylamino)-5-fluoro-2-((7-nitro-1H-indol-5-yl)amino)nicotinamide] | < 10 nM | 65 to 130 nM

The remaining lines, values ahead:

Row | IC50 [1] | IC50 (THP-1 cells) | Compound
8 | < 10 nM | 65 to 130 nM | NC(=O)c1cc(F)c(N[C@@H]2CCCC[C@@H]2N)nc1Nc1cc(-n2cncn2)nc2[nH]ccc12 (relative stereo) [Example 004-069, 2-((6-(1H-1,2,4-triazol-1-yl)-1H-pyrrolo[2,3-b]pyridin-4-yl)amino)-6-(cis-2-aminocyclohexylamino)-5-fluoronicotinamide]
9 | < 10 nM | 65 to 130 nM | NC(=O)c1cc(F)c(N[C@@H]2CCCC[C@@H]2N)nc1Nc1cncc(-c2cncs2)c1 (relative stereo) [Example 004-074, 6-(cis-2-aminocyclohexylamino)-5-fluoro-2-((5-(thiazol-5-yl)pyridin-3-yl)amino)-nicotinamide]
10 | < 10 nM | 130 to 200 nM | NC(=O)c1cc(F)c(N[C@@H]2CCCC[C@@H]2N)nc1Nc1cncc(-c2cnn(Cc3ccccc3)c2)c1 (relative stereo) [Example 004-075, 6-(cis-2-aminocyclohexylamino)-2-((5-(1-benzyl-1H-pyrazol-4-yl)pyridin-3-yl)amino)-5-fluoronicotinamide]
11 | < 10 nM | 130 to 200 nM | NC(=O)c1cc(F)c(N[C@@H]2CCCC[C@@H]2N)nc1Nc1cncc(-c2ccc3[nH]ccc3c2)c1 (relative stereo) [Example 004-076, 2-((5-(1H-indol-5-yl)pyridin-3-yl)amino)-6-(cis-2-aminocyclohexylamino)-5-fluoronicotinamide]

— patent publication US8895585B2, “Nicotinamide derivative or salt thereof” (FUJIFILM Corporation, priority 2010, dated 2014)
